Source: US12492403B2, “Aptamers and the use thereof in the treatment of cancer” (FUNDACIÓN PARA LA INVESTIGACIÓN BIOMÉDICA DEL HOSPITAL …, priority 2018, dated 2025)

Test system: MCF7, MDA-MB-231, and MDA-MB-468 cells
Experiment: MTT activity after direct addition of aptamer (no transfectant)
Assay type: cell-based, human
Conditions: direct addition without transfectant, highest tested concentration (0.5, 1, and 2 μM tested), 48 hours
Experimental: FIG. 17. MTT activity measurement in breast lines after the direct addition of apMNKQ2. MCF7, MDA-MB-231, and MDA-MB-468 cells were seeded in 96-well plates at a density of 10^4 cells/well, and apMNKQ2 was added at concentrations of 0.5, 1, and 2 μM at 24 hours. MTT assays were performed after 48 hours. The graphs represent the mean of 3 independent experiments, and are normalized with respect to the control of the untreated cells.
MTT activity. The cells were seeded in 96-well plates and after having been transfected, the culture medium was removed and 100 μL/well of MTT at 1 mg/ml in culture medium were added. The plates were incubated for 90 minutes in an incubator with a moisture-saturated environment at 37° C. and 5% CO2/[…] and 100 μL/well of a lysis solution (10% SDS and 10 mM HCl) were added for dissolving the crystals. After 48 hours, the reduction of MTT was determined by means of spectrophotometry in Infinite F200 (TECAN, Switzerland) at 540 nm.
The signal of the aptamer with lipofectamine (FIG. 16B) is more intense and less scattered than when the aptamer enters directly (FIG. 16A). The difference is more evident in the aggregates co-localized in the nucleus. […]

For “5′TGGGGTGGGCGGGCGGGGGTGGGGGTGGT-3′ (DNA, backbone and methylation of C not given here; further chemistry not fully specified) [apMNKQ2]”, the “reduction of MTT activity” value was 15%.
